{"source": "patent US20240366539A1", "about": "“METHODS FOR TREATING AUTISM SPECTRUM DISORDERS” (INSTITUT NATIONAL DE LA SANTÉ ET DE LA RECHERCHE MÉDICALE, priority 2021, published 2024)", "assay_type_in_all_cases": "in vivo, mouse", "key": {"Oprm1^−/− mice [1]": {"system": "Oprm1^−/− mice", "test": "Novelty-suppressed feeding", "method": "(§1) Mice were treated with vehicle (NaCl 0.9%; ip, 10 or 20 ml/kg), NaBr (Sigma-Aldrich, Saint-Quentin Fallavier, France) administered either chronically (once a day, 10, 30, 70, 125, 250 and 500 mg/kg; i.p. or per os, in a volume of 20 ml/kg—except for combination with VU0155041: […]) or acutely (250 mg/kg, 20 ml/kg), KBr (Sigma-Aldrich, Saint-Quentin Fallavier, France; 145 mg/kg; i.p., 20 ml/kg), bumetanide (R&D systems, Minneapolis, USA, 0.5 and 2 mg/kg; i.p., 20 ml/kg) or VU0155041 (Cayman Chemicals, Ann Arbor, USA, once a day, i.p., 1 mg/kg, 10 ml/kg). […] When treatment was given chronically, behavioral testing started 8 days after beginning of daily administration. Treatment was maintained for 8 to 18 consecutive days (see timelines in FIGS. 1 and 4), allowing thorough behavioral phenotyping. On testing days, or when treatment was given acutely, drugs (or vehicle) were administered 30 min before behavioral assays.\nNovelty-suppressed feeding. Novelty-suppressed feeding (NSF) was measured in 24-hr food-deprived mice, isolated in a standard housing cage for 30 min before individual testing. Three pellets of ordinary lab chow were placed on a white tissue in the center of each arena, lit at 60 lx. Each mouse was placed in a corner of an arena and allowed to explore for a maximum of 15 min. Latency to feed was measured as the time necessary to bite a food pellet. Immediately after an eating event, the mouse was transferred back to home cage (free from cage-mates) and allowed to feed on lab chow for 5 min. Food consumption in the home cage was measured."}, "Shank3^Δex13-16−/− mice": {"system": "Shank3^Δex13-16−/− mice", "test": "Y-maze exploration", "conditions": "Shank3Δex13-16−/− mice; chronic NaBr 250 mg/kg once daily", "method": "as §1\n(§2) Y-maze exploration. Spontaneous alternation behavior was used to assess perseverative behavior (65-67). Each Y-maze consisted of three connected Plexiglas arms (15×15×17 cm) covered with distinct wall patterns (15 lx). Floors were covered with lightly sprayed fresh sawdust to limit anxiety.\n(§3) To this purpose, we evaluated the effects of chronic NaBr administration at the dose of 250 mg/kg on autism-sensitive behaviors in these lines (FIG. 3A)."}, "Fmr1^−/− mice": {"system": "Fmr1^−/− mice", "test": "Y-maze exploration", "conditions": "chronic NaBr 250 mg/kg once daily", "method": "as §1, §2, §3"}, "Oprm1^−/− mice [2]": {"system": "Oprm1^−/− mice", "test": "Direct social interaction test", "method": "as §1\nWhen assessing effects of chronic administration, experiments were performed successively (timelines in FIGS. 1 and 4) (51, 60). Testing order was chosen to minimize the incidence of anxiety on later assays. Direct social interaction and novelty suppressed feeding were performed in 4 equal square arenas (open fields, 50×50 cm) separated by 35 cm-high opaque grey Plexiglas walls over a white Plexiglas platform (View Point, Lyon, France). Stimulus mice used for the three-chamber test were 8-14-week-old grouped-housed male or female wild-type mice, socially naive to the experimental animals.\nDirect social interaction test. On testing day, a pair of unfamiliar mice (not cage mates, age-, sex- and treatment-matched) was introduced in each arena for 10 min (15 lx). Each arena received a black plastic floor (transparent to infrared). […] The mean duration of nose and paw contacts was calculated from previous data (61-63)."}, "Oprm1^−/− mice [3]": {"system": "Oprm1^−/− mice", "test": "Three-chamber social preference test", "method": "as §1\nThree-chamber social preference test. The test apparatus consisted of a transparent acrylic box (exterior walls blinded with black plastic film); partitions divided the box into three equal chambers (40×20×22.5 cm). Two sliding doors (8×5 cm) allowed transitions between chambers. Cylindrical wire cages (18×9 cm, 0.5 cm diameter-rods spaced 1 cm apart) were used to contain the mouse interactor and object (soft-toy mouse). The test was performed in low-light conditions (15 lx) to minor anxiety. Stimulus wild-type mice were habituated to confinement in wire cages for 2 days before the test (20 min/day). On testing day, the experimental animal was introduced to the middle chamber and allowed to explore the whole apparatus for a 10-min habituation phase (wire cages empty) after the sliding doors were raised. The experimental mouse was then confined back in the middle-chamber while the experimenter introduced an unfamiliar wild type age and sex-matched animal into a wire cage in one of the side-chambers and a soft toy mouse (8×10 cm) in the second wire cage as a control for novelty. Then the experimental mouse was allowed to explore the apparatus for a 10-min interaction phase. The time spent in each chamber, the time spent in nose contact with each wire cage (empty: habituation; containing a mouse or a toy: interaction), as well as the number of these nose contacts were scored a posteriori on video recordings using an ethological keyboard (Labwatcher®, View Point, Lyon, France) by trained experimenters. […] The relative position of stimulus mice (versus toy) was counterbalanced between groups."}, "Oprm1^−/− mice [4]": {"system": "Oprm1^−/− mice", "test": "Y-maze exploration", "conditions": "chronic NaBr 10-500 mg/kg or bumetanide 0.5 and 2 mg/kg", "method": "as §1\nY-maze exploration. Spontaneous alternation behavior was used to assess perseverative behavior (65-67). Each Y-maze consisted of three connected Plexiglas arms (15×15×17 cm) covered with distinct wall patterns (15 lx). Floors were covered with lightly sprayed fresh sawdust to limit anxiety. Each mouse was placed at the center of a maze and allowed to freely explore this environment for 5 min. The pattern of entries into each arm was quoted on video-recordings. Spontaneous alternations (SPA), i.e. successive entries into each arm forming overlapping triplet sets, alternate arm returns (AAR) and same arm returns (SAR) were scored, and the percentage of SPA, AAR and SAR was calculated as following: total/(total arm entries−2)*100."}, "[5]": {"conditions": "Oprm1−/− mice, chronic once daily, NaBr 10-500 mg/kg (effect from 125 mg/kg) or bumetanide 0.5 and 2 mg/kg, D9"}, "[6]": {"conditions": "Oprm1−/− mice, one week after cessation of chronic treatment (NaBr over 70 mg/kg, highest doses; bumetanide depending on the dose)"}, "[7]": {"conditions": "chronic NaBr (since lowest dose, 10 mg/kg) or bumetanide 0.5 and 2 mg/kg"}}, "data": [{"smiles": "[Br-].[Na+]", "note": "[NaBr, sodium bromide]", "values": [{"measurement": "latency to feed", "setting": "Oprm1^−/− mice [1]; Oprm1−/− mice, chronic NaBr 70 mg/kg", "result": "sufficient to normalize latency to feed"}, {"measurement": "latency to eat", "setting": "Oprm1^−/− mice [1]; Oprm1−/− mice, chronic NaBr (since the lowest dose tested) or bumetanide", "result": "normalized eating latency"}, {"measurement": "food intake", "setting": "Oprm1^−/− mice [1]; both mouse lines, chronic NaBr (since the lowest dose tested) or bumetanide", "result": "increased food intake in both mouse lines"}, {"measurement": "perseverative same arm returns", "setting": "Shank3^Δex13-16−/− mice", "result": "suppressed under chronic bromide"}, {"measurement": "perseverative same arm returns", "setting": "Fmr1^−/− mice", "result": "suppressed under chronic bromide"}, {"measurement": "social interaction in wild-type controls", "setting": "Oprm1^−/− mice [2]; Oprm1+/+ mice, chronic once daily, NaBr 10-500 mg/kg or bumetanide 0.5 and 2 mg/kg", "result": "had no detectable effect in Oprm1^+/+ mice"}, {"measurement": "social interaction behavioral parameters", "setting": "Oprm1^−/− mice [2]; Oprm1−/− mice, NaBr 70 mg/kg, VU0155041 1 mg/kg, alone or combined, once daily, chronic", "result": "had no detectable effects on behavioral parameters"}, {"measurement": "social interaction deficit", "setting": "Oprm1^−/− mice [2]; Oprm1−/− mice, chronic once daily i.p., NaBr 10-500 mg/kg or bumetanide 0.5 and 2 mg/kg, D9", "result": "from the dose of 125 mg/kg dose-dependently relieved this deficit"}, {"measurement": "number of nose contacts", "setting": "Oprm1^−/− mice [2]; Oprm1−/− mice, chronic once daily, NaBr 10-500 mg/kg (effect from 125 mg/kg) or bumetanide 0.5 and 2 mg/kg (effect at low dose), D9", "result": "restored number"}, {"measurement": "mean duration of nose contacts", "setting": "Oprm1^−/− mice [2]; [5]", "result": "restored"}, {"measurement": "mean duration of paw contacts", "setting": "Oprm1^−/− mice [2]; [5]", "result": "normalized"}, {"measurement": "number of paw contacts", "setting": "Oprm1^−/− mice [2]; [5]", "result": "normalized number"}, {"measurement": "grooming after social contact", "setting": "Oprm1^−/− mice [2]; Oprm1−/− mice, chronic once daily, NaBr 10-500 mg/kg or bumetanide 0.5 and 2 mg/kg, D9", "result": "normalized the frequency of grooming after social contact in mutants, since the dose of 70 mg/kg"}, {"measurement": "duration of nose contacts", "setting": "Oprm1^−/− mice [2]; [6]", "result": "preserved restoration of the duration of nose contacts"}, {"measurement": "grooming after social contact", "setting": "Oprm1^−/− mice [2]; [6]", "result": "maintained suppression of grooming after social contact"}, {"measurement": "social interaction parameters", "setting": "Oprm1^−/− mice [2]; Oprm1−/− mice, single acute injection of NaBr 250 mg/kg, data not shown", "result": "had little effect on social interaction parameters"}, {"measurement": "relieving effects on social interaction", "setting": "Oprm1^−/− mice [2]; Oprm1−/− mice, two weeks after cessation of chronic NaBr, data not shown", "result": "had mostly vanished after two weeks"}, {"measurement": "number of following episodes", "setting": "Oprm1^−/− mice [2]; chronic once daily, NaBr 10-500 mg/kg (both mouse lines) or bumetanide (at low dose), D9", "result": "increased the number of following episodes in both mouse lines"}, {"measurement": "frequency of nose contacts with the mouse versus the toy", "setting": "Oprm1^−/− mice [3]; NaBr 70 mg/kg or VU0155041 1 mg/kg, once daily, chronic", "result": "sufficient to restore more frequent nose contacts with the mouse versus the toy"}, {"measurement": "duration of nose contacts with the mouse versus the toy", "setting": "Oprm1^−/− mice [3]; NaBr 70 mg/kg, VU0155041 1 mg/kg, alone or combined, once daily, chronic", "result": "fully restored longer nose contacts with the mouse"}, {"measurement": "social preference", "setting": "Oprm1^−/− mice [3]; chronic NaBr 10-500 mg/kg once daily", "result": "completely restored social preference in mutant mice"}, {"measurement": "social preference ratio", "setting": "Oprm1^−/− mice [3]; chronic NaBr 10-500 mg/kg or bumetanide 0.5 and 2 mg/kg", "result": "normalization of their preference ratio from 10 mg/kg NaBr and over"}, {"measurement": "duration of nose contacts with the mouse versus the toy", "setting": "Oprm1^−/− mice [3]; [7]", "result": "longer"}, {"measurement": "number of nose contacts with the mouse versus the toy", "setting": "Oprm1^−/− mice [3]; [7]", "result": "more frequent"}, {"measurement": "perseverative same arm returns", "setting": "Oprm1^−/− mice [4]", "result": "suppressed perseverative same arm returns from the dose of 70 mg/kg"}, {"measurement": "perseverative same arm returns", "setting": "Oprm1^−/− mice [4]; listed as bromide", "result": "decreased the number of perseverative same arm returns in Oprm1 null mice to wild-type levels since the dose of 30 mg/kg"}]}]}
